From patent US5747488A, “2-aryl-5,11-dihydro-6H-dipyrido[3,2-B:2',3'-E][1, 4]diazepines and their use in the treatment of HIV infection” (Boehringer Ingelheim Pharmaceuticals, Inc., priority 1996, dated 1998)

How the values were obtained:
[1] = molecular target: T1, HIV-1 reverse transcriptase, wild type (WT) (Human immunodeficiency virus type 1 (BRU ISOLATE), UniProt P03367); assay: Reverse transcriptase (RT) assay, wild type enzyme (RNA-dependent DNA polymerase activity); assay type: biochemical, Human Immunodeficiency Virus (HIV-1), LAV strain; settings: read-out: RT (WT) Assay % inh. (1 μM)
T1 construct: recombinant clone pBRTprtl+ (vector pIBI21, lac promoter) in E. coli JM109
Excerpt: Utilizing the Reverse Transcriptase (RT) Assay described below, compounds can be tested for their ability to inhibit the RNA-dependent DNA polymerase activity of HIV-1 RT. Certain specific compounds described in the Examples which appear below, were so tested.
Among the enzymes for which Human Immunodeficiency Virus (HIV-1) encodes is a reverse transcriptase (1), so-named because it transcribes a DNA copy from an RNA template. This activity can be quantitatively measured in a cell-free enzyme assay, which has been previously described (2), and is based upon the observation that reverse transcriptase is able to use a synthetic template [poly r(C) primed with oligo d(G)] to transcribe a radio-labelled, acid-precipitable DNA strand utilizing ^3 H-dGTP as a substrate. The assay described below utilizes the wild type (WT) enzyme, which is the predominant form of the enzyme observed in patients infected with HIV-1. Utilization of the mutant RT enzyme (Y181C, prepared by site-directed mutagenesis in which the tyrosine residue at codon 181 has been replaced by a cysteine residue) and analogous assay conditions allows compounds to be evaluated for their effectiveness at inhibiting this mutant enzyme. […]

[2] = MTT assay (cytotoxicity); assay type: cell-based; settings: human; H9 cells, five days
Description: In order to roughly assess the cytotoxicity of the compounds provided by the invention, several such compounds were tested in the MTT Assay described below. Compounds having a relatively high CC50 are preferred.
The MTT [3-(4,5-dimethylthiazol-2-yl)-2,5 diphenyl tetrazolium bromide) assay is based on cleavage of tetrazolium bromide by metabolically active cells, resulting in a highly quantitative blue color. This assay has been previously described (1) but has been optimized for the purposes of the testing reported herein.
The H9 cell line (2), an established human lymphoma suspension cell line grown in RPMI 1640 supplemented with 10% fetal bovine serum, is used as the target cell line in the assay. Cells (100 μL) are plated in microtest plate wells at a concentration of 10^5 cells per mL in the presence of varying concentrations of inhibitor. The cells are incubated at 37° C. in a humidified CO2 incubator. Five days later, 20 μL of MTT (5 mg/mL in RPMI 1640, sonicated, 0.2 micron filtered, and stored at 4° C.) is added to each well. After 4 hours additional incubation at 37° C., 60 μL of Triton-X is added to each well and thoroughly mixed to aid the solubilization of the crystals. Absolute ethanol (5 μL) is added to each well and the resulting mixture is incubated for 30 minutes at 60° C. and immediately read on a plate reader (Dynatech) at a wavelength of 570 nm. […]

CCN1c2ncccc2-c2ncc(C)n2-c2ccc(-c3cn[nH]c3)nc21 [Example 1, 8-Ethyl-1-methyl-10-(4-pyrazolyl)imidazo[2',3':6,5]dipyrido[3,2-b:2',3'-e][1,4]diazepine]
inhibition at 1 µM [1]: 95%
CC50 at 120 h [2]: > 100 µM
